# Source: patent US20260000676A1, “CHROMAN DERIVATIVES AS ESTROGEN RECEPTOR DEGRADERS” (THE REGENTS OF THE UNIVERSITY OF MICHIGAN, priority 2022, published 2026)
# How the values were obtained:
# CRBN/DDB1 = CRBN/DDB1 (Homo sapiens (Human), UniProt Q96SW2); test: HTRF binding assay to CRBN/DDB1; details: read-out: CRBN HTRF IC50
# Procedure: The binding potency was determined using HTRF assay technology (Perkin Elmer). Compounds were serially diluted in DMSO and 0.2 μL volume was transferred to white 384-well plate.
# ER [1] = biological target: T1, ER (Homo sapiens (Human), UniProt P03372); test: In-cell western (ICW) ER degradation assay in MCF-7 cells; format: cell-based; details: MCF7, 16 hrs; for DC50: ER degradation; for Dmax: MCF7, maximal ER degradation; for MCF7 Dmax %: maximal ER degradation
# Procedure: (§1) ERa degradative activity of compounds can be assessed in MCF-7 and T47D Cells. MCF-7 and T47D cell are seeded and are subsequently treated with the compounds at certain concentrations (e.g., 0.02 to 300 nM). DMSO can be used as vehicle control. Cells are fixed and are blocked with Intercept (PBS) Blocking Buffer (e.g., Li-COR, Odyssey Blocking Buffer), and are stained with ER (e.g., 1:500, Cell signaling) primary antibody for overnight at cold room. Secondary Antibody (e.g., IRDye 800CW Goat anti-Rabbit IgG) and CellTag 700 Stain are added in Intercept (PBS) Blocking Buffer. Finally, cell plate is placed in incubator to dry. Image and signal are captured on Odyssey® DLx Imaging System.
# (§2) Day 3: After 16 hrs of compounds treatment, cells were fixed by 4% PFA and permeabilized with elution buffer (0.1% Triton X-100 in 1% PBS Solution). Subsequently, cells were blocked with Intercept (PBS) Blocking Buffer (Li-COR, Odyssey Blocking Buffer), and were stained with ER (1:500, Cell signaling) primary antibody for overnight at cold room.
# (§3) Day 4: Remove the buffer, add IRDye 800CW Goat anti-Rabbit IgG Secondary Antibody (1:2000) and CellTag 700 Stain (1:500) in Intercept (PBS) Blocking Buffer. Finally, cell plate is placed in incubator to dry. Image and signal were captured on Odyssey® DLx Imaging System.
# ER [2] = biological target: T1, ER; test: In-cell western (ICW) ER degradation assay in T47D cells; format: cell-based; details: 16 hrs; for DC50: ER degradation; for Dmax: maximal ER degradation
# Procedure: as §1, §2, §3
# CRBN/DDB1, sequence (Q96SW2 whole entry): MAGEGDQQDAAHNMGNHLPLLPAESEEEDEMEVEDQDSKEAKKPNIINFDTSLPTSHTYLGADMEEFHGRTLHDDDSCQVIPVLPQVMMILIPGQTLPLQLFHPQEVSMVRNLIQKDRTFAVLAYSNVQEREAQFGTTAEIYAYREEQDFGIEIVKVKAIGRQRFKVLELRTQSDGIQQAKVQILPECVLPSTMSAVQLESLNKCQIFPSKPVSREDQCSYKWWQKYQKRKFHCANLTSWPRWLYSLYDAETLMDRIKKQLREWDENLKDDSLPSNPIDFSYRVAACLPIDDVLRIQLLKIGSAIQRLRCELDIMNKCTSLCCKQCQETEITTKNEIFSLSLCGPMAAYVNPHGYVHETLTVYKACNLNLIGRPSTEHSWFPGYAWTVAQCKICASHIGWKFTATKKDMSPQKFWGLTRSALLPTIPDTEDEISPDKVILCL
# CRBN/DDB1, sequence (Q16531 whole entry partner): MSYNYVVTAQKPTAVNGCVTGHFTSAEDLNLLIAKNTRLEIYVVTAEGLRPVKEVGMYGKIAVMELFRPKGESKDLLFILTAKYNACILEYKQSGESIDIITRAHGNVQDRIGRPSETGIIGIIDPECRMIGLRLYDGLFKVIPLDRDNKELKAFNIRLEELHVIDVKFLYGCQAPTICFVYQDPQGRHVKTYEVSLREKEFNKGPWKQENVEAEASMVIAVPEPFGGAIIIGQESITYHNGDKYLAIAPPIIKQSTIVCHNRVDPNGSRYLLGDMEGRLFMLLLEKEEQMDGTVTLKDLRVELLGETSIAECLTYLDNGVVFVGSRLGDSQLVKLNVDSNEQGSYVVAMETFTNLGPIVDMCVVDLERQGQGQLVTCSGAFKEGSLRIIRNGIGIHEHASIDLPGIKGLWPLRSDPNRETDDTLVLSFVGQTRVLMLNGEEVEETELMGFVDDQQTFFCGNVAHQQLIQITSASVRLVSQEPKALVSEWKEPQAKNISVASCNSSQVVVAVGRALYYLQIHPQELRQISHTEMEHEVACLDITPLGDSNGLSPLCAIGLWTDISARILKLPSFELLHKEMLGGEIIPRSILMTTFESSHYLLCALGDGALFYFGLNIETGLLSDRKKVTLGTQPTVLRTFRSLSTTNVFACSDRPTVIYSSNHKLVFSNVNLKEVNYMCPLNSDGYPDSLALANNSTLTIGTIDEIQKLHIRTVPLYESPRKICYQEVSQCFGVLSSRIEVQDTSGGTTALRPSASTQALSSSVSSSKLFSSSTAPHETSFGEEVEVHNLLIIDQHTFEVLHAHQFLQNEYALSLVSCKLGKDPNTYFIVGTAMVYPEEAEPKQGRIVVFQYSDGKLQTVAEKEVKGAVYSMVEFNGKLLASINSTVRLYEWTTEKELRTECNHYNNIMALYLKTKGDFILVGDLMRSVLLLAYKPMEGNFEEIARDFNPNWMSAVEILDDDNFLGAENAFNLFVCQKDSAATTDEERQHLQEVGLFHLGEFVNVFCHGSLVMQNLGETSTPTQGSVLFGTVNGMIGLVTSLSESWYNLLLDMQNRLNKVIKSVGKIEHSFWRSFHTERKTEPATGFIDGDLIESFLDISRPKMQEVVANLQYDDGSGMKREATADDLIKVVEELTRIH
# T1 sequence (P03372 whole entry): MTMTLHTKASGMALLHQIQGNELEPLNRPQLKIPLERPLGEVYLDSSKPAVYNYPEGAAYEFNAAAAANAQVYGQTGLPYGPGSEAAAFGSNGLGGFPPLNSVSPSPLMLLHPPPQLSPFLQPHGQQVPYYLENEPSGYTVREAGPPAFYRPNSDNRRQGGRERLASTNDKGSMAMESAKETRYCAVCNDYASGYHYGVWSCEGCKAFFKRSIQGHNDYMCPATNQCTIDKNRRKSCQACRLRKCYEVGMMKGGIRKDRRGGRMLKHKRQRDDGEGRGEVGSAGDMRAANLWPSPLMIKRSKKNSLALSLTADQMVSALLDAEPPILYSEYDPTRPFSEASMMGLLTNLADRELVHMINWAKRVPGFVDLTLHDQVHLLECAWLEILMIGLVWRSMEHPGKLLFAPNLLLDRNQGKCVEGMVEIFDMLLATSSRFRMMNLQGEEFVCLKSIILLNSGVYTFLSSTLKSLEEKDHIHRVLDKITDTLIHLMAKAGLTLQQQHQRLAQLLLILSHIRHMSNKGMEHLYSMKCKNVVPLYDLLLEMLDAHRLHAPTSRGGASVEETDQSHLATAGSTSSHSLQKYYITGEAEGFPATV
Molecule,IC50 (CRBN/DDB1) [nM],DC50 (ER [1]) [nM],Dmax (ER [1]) [%],DC50 (ER [2]) [nM],Dmax (ER [2]) [%],MCF7 Dmax % (ER [1])
"Cc1nn(C2CCC(=O)NC2=O)c2ccc(N3CCN(CC4CCN(c5ccc([C@@H]6c7ccc(O)cc7OC[C@@H]6c6ccccc6)cc5F)CC4)CC3)cc12 (single isomer, unassigned) [Compound A14]",500 to 5000,1 to 10,25 to 50,–,–,–
"O=C1CCC(N2C(=O)c3cc4c(cc3C2=O)CN(C(=O)C2CCN(C3CCN(c5ccc([C@H]6c7ccc(O)cc7OC[C@H]6c6ccccc6)cc5)CC3)CC2)C4)C(=O)N1 (single isomer, unassigned) [Compound A78]",500 to 5000,–,–,10 to 100,25 to 50,–
"O=C1CCC(N2Cc3cc4c(cc3C2=O)CN(C(=O)CN2CCC3(CC2)CN(c2ccc([C@H]5c6ccc(O)cc6OC[C@H]5c5ccccc5)cc2)C3)C4)C(=O)N1 (stereo partly drawn) [Compound A48, 3-(6-(2-(2-(4-((3R,4S)-7-hydroxy-3-phenylchroman-4-yl)phenyl)-2,7-diazaspiro[3.5]nonan-7-yl)acetyl)-1-oxo-3,5,6,7-tetrahydropyrrolo[3,4-f]isoindol-2(1H)-yl)piperidine-2,6-dione]",50 to 500,> 100,< 25,–,–,–
"O=C1CCC(N2Cc3c(ccc4c3OC[C@@H]3CN(CC5CCN(c6ccc([C@@H]7c8ccc(O)cc8OC[C@@H]7c7ccccc7)cc6F)CC5)CCN43)C2=O)C(=O)N1 (single isomer, unassigned) [Compound A6]",50 to 500,1 to 10,50 to 75,–,–,–
"O=C1CCC(N2C(=O)c3cc4c(cc3C2=O)CN(C(=O)CN2CCC3(CC2)CN(c2ccc([C@@H]5c6ccc(O)cc6OC[C@@H]5c5ccccc5)cc2)C3)C4)C(=O)N1 (stereo partly drawn) [Compound A47, 2-(2,6-dioxopiperidin-3-yl)-6-(2-(2-(4-((3S,4R)-7-hydroxy-3-phenylchroman-4-yl)phenyl)-2,7-diazaspiro[3.5]nonan-7-yl)acetyl)-6,7-dihydropyrrolo[3,4-f]isoindole-1,3(2H,5H)-dione]",500 to 5000,10 to 100,25 to 50,–,–,–
"O=C1CCC(N2Cc3c(ccc4c3OC[C@H]3CN(CC5CCN(c6ccc([C@@H]7c8ccc(O)cc8OC[C@@H]7c7ccccc7)cc6)CC5)CCN43)C2=O)C(=O)N1 (single isomer, unassigned) [Compound A8]",50 to 500,1 to 10,–,–,–,–
"O=C1CCC(Nc2ccc3c(c2)OC[C@H]2CN(CC4CC5(CCN(c6ccc([C@@H]7c8ccc(O)cc8OC[C@@H]7c7ccccc7)cc6)CC5)C4)CCN32)C(=O)N1 (stereo partly drawn) [Compound A94, 3-(((R)-3-((7-(4-((3S,4R)-7-hydroxy-3-phenylchroman-4-yl)phenyl)-7-azaspiro[3.5]nonan-2-yl)methyl)-1,2,3,4,4a,5-hexahydrobenzo[b]pyrazino[1,2-d][1,4]oxazin-8-yl)amino)piperidine-2,6-dione]",500 to 5000,–,–,1 to 10,50 to 75,–
"COc1cc(N2CCC(CN3CCN4c5ccc6c(c5OC[C@H]4C3)CN(C3CCC(=O)NC3=O)C6=O)CC2)ccc1[C@H]1c2ccc(O)cc2OC[C@H]1c1ccccc1 (stereo partly drawn) [Compound A76, 3-((R)-7-((1-(4-((3R,4S)-7-hydroxy-3-phenylchroman-4-yl)-3-methoxyphenyl)piperidin-4-yl)methyl)-1-oxo-1,3,5,5a,6,7,8,9-octahydro-2H-81pyrazino[1′,2′:4,5][1,4]oxazino[2,3-e]isoindol-2-yl)piperidine-2,6-dione]",50 to 500,–,–,> 100,< 25,–
"O=C1CCC(N2C(=O)c3cc4c(cc3C2=O)CN(CC(=O)N2CC3(CCN(c5ccc([C@H]6c7ccc(O)cc7OC[C@H]6c6ccccc6)cc5)CC3)C2)C4)C(=O)N1 (single isomer, unassigned) [Compound A39]",50 to 500,> 100,< 25,–,–,–
"O=C1CCC(N2Cc3cc4c(cc3C2=O)CN(C(=O)CN2CC3(CCN(c5ccc([C@H]6c7ccc(O)cc7OC[C@H]6c6ccccc6)cc5)CC3)C2)C4)C(=O)N1 (single isomer, unassigned) [Compound A45]",50 to 500,> 100,–,–,–,D (“D”; <25%)
"O=C1CCN(c2ccc(N3CCN(CC4CCN(c5ccc([C@@H]6c7ccc(O)cc7OC[C@@H]6c6ccccc6)cc5)CC4)CC3)cc2)C(=O)N1 (single isomer, unassigned) [Compound A82]",500 to 5000,–,–,1 to 10,25 to 50,–
"2-(2,6-dioxopiperidin-3-yl)-6-(2-(9-(4-((3R,4S)-7-hydroxy-3-phenylchroman-4-yl)phenyl)-3,9-diazaspiro[5.5]undecan-3-yl)acetyl)-6,7-dihydropyrrolo[3,4-flisoindole-1,3(2H,5H)-dione [Compound A43]",> 5000,> 100,–,–,–,D (“D”; <25%)
"O=C1CCC(N2C(=O)c3cc4c(cc3C2=O)CN(CC(=O)N2CCC3(CC2)CN(c2ccc([C@H]5c6ccc(O)cc6OC[C@H]5c5ccccc5)cc2)C3)C4)C(=O)N1 (single isomer, unassigned) [Compound A38]",50 to 500,10 to 100,25 to 50,–,–,–
